Results: publication PMC10669656, “ADMET and Solubility Analysis of New 5-Nitroisatine-Based Inhibitors of CDK2 Enzymes” (Biomedicines, 2023)
Converted amounts (≈) assume the structure as drawn. “And” between values parts separate entries of the source, which are not always exact repeats. Identical values can stand only once.

How the values were obtained:
Assay type in all cases: physicochemical
[1] = Solubility in NMP-water binary mixtures; conditions: for solubility at 24 h: thermodynamic from solid
Method: (§1) The calibration curves for each derivative were obtained using successful dilutions of initial stock solutions followed by spectrophotometric measurements of the obtained solutions with decreasing concentration. The concentration ranges for the derivatives 1, 2, and 3 were 0.0081–0.0405 mg/mL, 0.0077–0.0385 mg/mL, and 0.0068–0.017 mg/mL, respectively. Methanol was used both as a solvent, as well as a reference for spectrophotometric measurements. […] The A360 spectrophotometer from AOE Instruments was used for the preparation of the calibration curves. […] Three calibration curves were prepared for each derivative and then averaged.
(§2) A multi-step procedure was employed in order to find the solubility of the studied derivatives in the selected solvents. First of all, the excess amount of the considered compound was added to test tubes containing either neat solvents or their mixtures with water in different proportions, thus forming binary solvents. Saturated solutions were obtained in this way, placed in a Shaker Incubator ES-20/60 from Biosan, and incubated for 24 h at 298.1 K. The temperature adjustment was possible with a 0.1-degree accuracy, and the variance within a 24 h cycle was 0.5 degrees. The samples were simultaneously mixed at 60 rev/min. After incubation, the samples were filtered with the help of plastic syringes equipped with PTFE filters with 0.22 µm pore size. The obtained filtrates were diluted with methanol in another set of test tubes. In order to determine the mole fractions of a solute in the solution, 1 mL of the filtered samples was weighed in 10 mL volumetric flasks using a RADWAG AS 110 R2.PLUS analytical balance. The samples diluted with methanol were measured spectrophotometrically using the same instrument as was used in the case of calibration curves. The spectra were recorded in the wavelength range of 190–500 nm, and the resolution was 1 nm. Methanol was used if further dilution of the sample was required, and it was also used as a reference for calibrating the spectrophotometer. The absorbance values at 315 nm, 321 nm, and 321 nm were taken into account for derivatives 1, 2, and 3, respectively. Based on the calibration curves, the concentration of the solute in the samples was determined together with its mole fraction. Three separate measurements were conducted, and the final values are the results of averaging them.

[2] = Solubility in neat solvents, shake-flask with spectrophotometric determination; conditions: for solubility at 24 h: 25 °C, organic solvent or mixture, thermodynamic from solid
Method: as §1, §2

[3] = Solubility in DMSO-water binary mixtures; conditions: for solubility at 24 h: 25 °C, thermodynamic from solid
Method: as §1, §2

[4] = neat γ-nonanoic lactone, 298.1 K

O=C1Nc2ccc([N+](=O)[O-])cc2C1=NNC(=O)c1cccc([N+](=O)[O-])c1 [derivative 3, 3-nitro-N′-[5-nitro-2-oxo-1,2-dihydro-3H-indol-3-ylidene]benzohydrazide] gave a solubility at 24 h ([1]; NMP-water binary mixture, x*NMP 0.1, 25 °C, aqueous with cosolvent or surfactant or cyclodextrin, x*NMP 0.1, 298.1 K) of 1.58 mg/mL (≈ 4.45 mM), a solubility at 24 h ([1]; NMP-water binary mixture, x*NMP 0.2, 25 °C, aqueous with cosolvent or surfactant or cyclodextrin, x*NMP 0.2, 298.1 K) of 3.29 mg/mL (≈ 9.26 mM) and a solubility at 24 h ([1]; NMP-water binary mixture, x*NMP 0.3, 25 °C, aqueous with cosolvent or surfactant or cyclodextrin, x*NMP 0.3, 298.1 K) of 4.94 mg/mL (≈ 13.9 mM). For the same compound, the solubility at 24 h ([1]; NMP-water binary mixture, x*NMP 0.4, 25 °C, aqueous with cosolvent or surfactant or cyclodextrin, x*NMP 0.4, 298.1 K) was 6.49 mg/mL (≈ 18.3 mM), the solubility at 24 h ([1]; NMP-water binary mixture, x*NMP 0.7, 25 °C, aqueous with cosolvent or surfactant or cyclodextrin, x*NMP 0.7, 298.1 K) was 9.56 mg/mL (≈ 26.9 mM) and the solubility at 24 h ([1]; NMP-water binary mixture, x*NMP 0.8, 25 °C, aqueous with cosolvent or surfactant or cyclodextrin, x*NMP 0.8, 298.1 K) was 10.2 mg/mL (≈ 28.7 mM). For the same compound, the solubility at 24 h ([1]; NMP-water binary mixture, x*NMP 0.9, 25 °C, aqueous with cosolvent or surfactant or cyclodextrin, x*NMP 0.9, 298.1 K) was 9.71 mg/mL (≈ 27.3 mM), the solubility at 24 h ([1]; NMP-water binary solvent, 25 °C, aqueous with cosolvent or surfactant or cyclodextrin, x*NMP 0.5, 298.1 K) was 7.72 mg/mL (≈ 21.7 mM) and the solubility at 24 h ([1]; NMP-water binary solvent, 25 °C, aqueous with cosolvent or surfactant or cyclodextrin, x*NMP 0.6, 298.1 K) was 8.71 mg/mL (≈ 24.5 mM). The solubility at 24 h ([1]; NMP-water series, x*NMP 1.0, 25 °C, organic solvent or mixture, x*NMP 1.0, 298.1 K) was 8.99 mg/mL (≈ 25.3 mM), the solubility x ([1]; x*NMP 0.1, 298.1 K) was 1.12 (0.01) × 10^−4 mole fraction and the solubility x ([1]; x*NMP 0.2, 298.1 K) was 3.05 (0.03) × 10^−4 mole fraction. For the same compound, the solubility x ([1]; x*NMP 0.3, 298.1 K) was 5.74 (0.10) × 10^−4 mole fraction, the solubility x ([1]; x*NMP 0.4, 298.1 K) was 8.92 (0.10) × 10^−4 mole fraction and the solubility x ([1]; x*NMP 0.5, 298.1 K) was 1.24 (0.01) × 10^−3 mole fraction. The solubility x ([1]; x*NMP 0.6, 298.1 K) was 1.60 (0.02) × 10^−3 mole fraction, the solubility x ([1]; x*NMP 0.7, 298.1 K) was 1.99 (0.02) × 10^−3 mole fraction and the solubility x ([1]; x*NMP 0.8, 298.1 K) was 2.29 (0.02) × 10^−3 mole fraction. For the same compound, the solubility x ([1]; x*NMP 0.9, 298.1 K) was 2.40 (0.03) × 10^−3 mole fraction, the solubility x ([1]; x*NMP 1.0, 298.1 K) was 2.44 (0.06) × 10^−3 mole fraction and the solubility at 24 h ([2]; neat DMF, 298.1 K) was 1.69 mg/mL (≈ 4.76 mM). The solubility at 24 h ([2]; neat DMP, 298.1 K) was 0.08 mg/mL (≈ 0.225 mM), the solubility at 24 h ([2]; neat DMSO, 298.1 K) was 3.09 mg/mL (≈ 8.7 mM) and the solubility at 24 h ([2]; neat NMP, 298.1 K) was 8.99 mg/mL (≈ 25.3 mM). The solubility at 24 h ([2]; neat acetone, 298.1 K) was 0.21 mg/mL (≈ 0.591 mM), the solubility at 24 h ([2]; neat acetonitrile, 298.1 K) was 0.17 mg/mL (≈ 0.479 mM) and the solubility at 24 h ([2]; neat cyrene, 298.1 K) was 0.29 mg/mL (≈ 0.816 mM). For the same compound, the solubility at 24 h ([2]; neat diglyme, 298.1 K) was 0.52 mg/mL (≈ 1.46 mM), the solubility at 24 h ([2]; neat dioxane, 298.1 K) was 0.31 mg/mL (≈ 0.873 mM) and the solubility at 24 h ([2]; neat ethyl lactate, 298.1 K) was 0.18 mg/mL (≈ 0.507 mM). The solubility at 24 h ([2]; neat methanol, 298.1 K) was 0.06 mg/mL (≈ 0.169 mM), the solubility at 24 h ([2]; neat tetraglyme, 298.1 K) was 0.43 mg/mL (≈ 1.21 mM) and the solubility at 24 h ([2]; neat triglyme, 298.1 K) was 0.23 mg/mL (≈ 0.647 mM). For the same compound, the solubility at 24 h ([2]; neat γ-heptalactone, 298.1 K) was 0.44 mg/mL (≈ 1.24 mM), the solubility at 24 h [2, 4] was 0.28 mg/mL (≈ 0.788 mM) and the solubility at 24 h ([2]; neat 1-butanol) was 0.02 mg/mL (≈ 0.0563 mM). For the same compound, the solubility at 24 h ([2]; neat 1-propanol) was 0.02 mg/mL (≈ 0.0563 mM), the solubility at 24 h ([2]; neat 4FM) was 0.94 mg/mL (≈ 2.65 mM) and the solubility x ([2]; neat 4FM, 298.1 K) was 2.65 (0.11) × 10^−4 mole fraction. For the same compound, the solubility x ([2]; neat DMF, 298.1 K) was 3.69 × 10^−4 mole fraction and 3.69 (0.05) × 10^−4 mole fraction, the solubility x ([2]; neat DMP, 298.1 K) was 0.27 (0.01) × 10^−4 mole fraction and the solubility x ([2]; neat DMSO, 298.1 K) was 6.12 × 10^−4 mole fraction and 6.12 (0.10) × 10^−4 mole fraction. The solubility x ([2]; neat NMP, 298.1 K) was 2.44 × 10^−3 mole fraction and 2.44 (0.07) × 10^−3 mole fraction, the solubility x ([2]; neat acetone, 298.1 K) was 0.43 (0.01) × 10^−4 mole fraction and the solubility x ([2]; neat cyrene, 298.1 K) was 0.83 (0.01) × 10^−4 mole fraction. The solubility x ([2]; neat diglyme, 298.1 K) was 2.08 (0.07) × 10^−4 mole fraction, the solubility x ([2]; neat dioxane, 298.1 K) was 0.74 (0.01) × 10^−4 mole fraction and the solubility at 24 h ([2]; neat ethanol) was 0.03 mg/mL (≈ 0.0844 mM). For the same compound, the solubility x ([2]; neat ethyl lactate, 298.1 K) was 0.57 (0.01) × 10^−4 mole fraction, the solubility x ([2]; neat tetraglyme, 298.1 K) was 2.67 (0.09) × 10^−4 mole fraction and the solubility x ([2]; neat triglyme, 298.1 K) was 1.17 (0.05) × 10^−4 mole fraction. The solubility x ([2]; neat γ-heptalactone, 298.1 K) was 1.59 (0.04) × 10^−4 mole fraction, the solubility x [2, 4] was 1.26 (0.05) × 10^−4 mole fraction and the solubility at 24 h ([2]; neat ε-caprolactone) was 0.34 mg/mL (≈ 0.957 mM). The solubility x ([2]; neat ε-caprolactone, 298.1 K) was 1.02 (0.02) × 10^−4 mole fraction, the solubility at 24 h ([3]; DMSO-water binary mixture, aqueous with cosolvent or surfactant or cyclodextrin, x*DMSO 0.1, 298.1 K) was 0.86 mg/mL (≈ 2.42 mM) and the solubility at 24 h ([3]; DMSO-water binary mixture, aqueous with cosolvent or surfactant or cyclodextrin, x*DMSO 0.2, 298.1 K) was 1.58 mg/mL (≈ 4.45 mM). The solubility at 24 h ([3]; DMSO-water binary mixture, aqueous with cosolvent or surfactant or cyclodextrin, x*DMSO 0.3, 298.1 K) was 2.48 mg/mL (≈ 6.98 mM), the solubility at 24 h ([3]; DMSO-water binary mixture, aqueous with cosolvent or surfactant or cyclodextrin, x*DMSO 0.4, 298.1 K) was 3.3 mg/mL (≈ 9.29 mM) and the solubility at 24 h ([3]; DMSO-water binary mixture, aqueous with cosolvent or surfactant or cyclodextrin, x*DMSO 0.5, 298.1 K) was 3.75 mg/mL (≈ 10.6 mM). For the same compound, the solubility at 24 h ([3]; DMSO-water binary mixture, aqueous with cosolvent or surfactant or cyclodextrin, x*DMSO 0.6, 298.1 K) was 3.95 mg/mL (≈ 11.1 mM), the solubility at 24 h ([3]; DMSO-water binary mixture, aqueous with cosolvent or surfactant or cyclodextrin, x*DMSO 0.7, 298.1 K) was 4.01 mg/mL (≈ 11.3 mM) and the solubility at 24 h ([3]; DMSO-water binary mixture, aqueous with cosolvent or surfactant or cyclodextrin, x*DMSO 0.8, 298.1 K) was 3.85 mg/mL (≈ 10.8 mM). For the same compound, the solubility at 24 h ([3]; DMSO-water binary mixture, aqueous with cosolvent or surfactant or cyclodextrin, x*DMSO 0.9, 298.1 K) was 3.54 mg/mL (≈ 9.96 mM), the solubility at 24 h ([3]; DMSO-water series, organic solvent or mixture, x*DMSO 1.0, 298.1 K) was 3.09 mg/mL (≈ 8.7 mM) and the solubility x ([3]; x*DMSO 0.2, 298.1 K) was 1.21 (0.01) × 10^−4 mole fraction. For the same compound, the solubility x ([3]; x*DMSO 0.3, 298.1 K) was 2.29 (0.01) × 10^−4 mole fraction, the solubility x ([3]; x*DMSO 0.4, 298.1 K) was 3.57 (0.03) × 10^−4 mole fraction and the solubility x ([3]; x*DMSO 0.5, 298.1 K) was 4.59 (0.04) × 10^−4 mole fraction. The solubility x ([3]; x*DMSO 0.6, 298.1 K) was 5.45 (0.03) × 10^−4 mole fraction, the solubility x ([3]; x*DMSO 0.7, 298.1 K) was 6.09 (0.03) × 10^−4 mole fraction and the solubility x ([3]; x*DMSO 0.8, 298.1 K) was 6.47 (0.04) × 10^−4 mole fraction. The solubility x ([3]; x*DMSO 0.9, 298.1 K) was 6.51 (0.04) × 10^−4 mole fraction and the solubility x ([3]; x*DMSO 1.0, 298.1 K) was 6.12 (0.07) × 10^−4 mole fraction.
